Laboratory results from US4520101A (priority 1983, dated 1985).
Values joined by “and” are separate entries in the source; they are usually repeats but may differ in a detail not shown here. Equal values may be shown once.

System: Cephalosporium acremonium (a high ceph C-producing mutant strain which also produces desacetyl ceph C)
Type: cell-based

## CCOP(=O)(OCC)C(C)=O [diethyl acetyl phosphonate]
  Ceph C: 9285 µg/g and 9665 µg/g
  Des C/Total Ceph Nucleus (Ceph C + Des Ceph C): 4.52% and 4.40%
  Des Ceph C: 440 µg/g and 445 µg/g
